From patent US6964949B2, “Pharmaceutical compositions for promoting the growth of gram-positive bacilli and increasing the acidity in the vagina and the use thereof” (Shanghai Jiao Da Onlly Co., Ltd., priority 2000, dated 2005)

Assays:
Type in all cases: cell-based
Conditions in all cases: 10.0% saccharide, 1.0% yeast extract, 1.6% xanthan gum (dextrin 0.5%, starch none), pH 6.2, candle jar, 37° C.
Gram-positive bacilli = experiment: Experiment Example 2: comparison of saccharides, specimen culture, Gram smear
Text: (§1) • (1)The preparation of the compositions: Different saccharides were used respectively to prepare the following compositions according to the methods mentioned above: glucose, fructose, galactose, mannose, maltose, sucrose, lactose, lactulose, mycose, cellobiose, melibiose, melitose, malto-oligosaccharide, isomaltooligosaccharide and fructooligosaccharide, dextrin, starch, and glycogen: • A. 5% glucose, 1.0% yeast extract, 1.6% xanthan gum, pH adjusted to 6.2; • B. 5% fructose, 1.0% yeast extract, 1.6% xanthan gum, pH adjusted to 6.2; • C. 5% galactose, 1.0% yeast extract, 1.6% xanthan gum, pH adjusted to 6.2; • D. 5% mannose, 1.0% yeast extract, 1.6% xanthan gum, pH adjusted to 6.2; • E. 10.0% maltose, 1.0% yeast extract, 1.6% xanthan gum, pH adjusted to 6.2; • F. 10.0% sucrose, 1.0% yeast extract, 1.6% xanthan gum, pH adjusted to 6.2; • G. 10.0% lactose, 1.0% yeast extract, 1.6% xanthan gum, pH adjusted to 6.2; • H. 10.0% lactulose, 1.0% yeast extract, 1.6% xanthan gum, pH adjusted to 6.2; • I. 10.0% cellobiose, 1.0% yeast extract, 1.6% xanthan gum, pH adjusted to 6.2; • J. 10.0% mycose, 1.0% yeast extract, 1.6% xanthan gum, pH adjusted to 6.2; • K. 10.0% melibiose, 1.0% yeast extract, 1.6% xanthan gum, pH adjusted to 6.2; • L. 10.0% melitose, 1.0% yeast extract, 1.6% xanthan gum, pH adjusted to 6.2; • M. 10.0% maltooligosaccharide, 1.0% yeast extract, 1.6% xanthan gum, pH adjusted to 6.2; • N. 10.0% isomaltooligosaccharide, 1.0% yeast extract, 1.6% xanthan gum, pH adjusted to 6.2; • O. 10.0% fructooligosaccharide, 1.0% yeast extract, 1.6% xanthan gum, pH adjusted to 6.2; • P. 10.0% dextrin, 1.0% yeast extract, 0.5% xanthan gum, pH adjusted to 6.2; • Q. 10.0% starch, 1.0% yeast extract, pH adjusted to 6.2; • R. 10.0% glycogen, 1.0% yeast extract, 1.6% xanthan gum, pH adjusted to 6.2. • (2)The preparation of the test tubes: The compositions prepared above were filled into test tubes, with each tube containing 5 ml, sterilized, and kept until use for experiment. • (3) Specimen suspension: Vaginal secretion was taken from one of the patients suffering from typical bacterial vagmosis with a cotton swab, then the swab was washed in 2 ml sterilized Trypcase-soy Broth immediately, and thus the specimen suspension was ready. […] Then the tubes were placed in a candle jar and cultivated at 37° C. After 24 hours and 48 hours' culture, culture samples were taken respectively from each of the tubes, then the Gram smears of the samples were observed and the pH values of culture samples were tested. […] Meanwhile the pH values in most of the composition tubes decreased to different levels. […] And maltose and sucrose exert better effect in promoting the growth of Gram-positive bacilli and the production of acids than that of the other kinds of oligosaccharides.

Gram-positive cocci = experiment: as above
Text: as §1

Gram-negative bacilli = experiment: as above
Text: as §1

Gram-negative cocci = experiment: as above
Text: as §1

[1] = test system: vaginal secretion specimen of a patient suffering from typical bacterial vaginosis; experiment: Experiment Example 2: pH of culture samples (production of acids)
Text: as §1

| Compound | Bacteria G + b (Gram-positive bacilli), 24 hours-culture (Gram-positive bacilli) | Bacteria G + b (Gram-positive bacilli), 48 hours-culture (Gram-positive bacilli) | Bacteria G + c (Gram-positive cocci), 24 hours-culture (Gram-positive cocci) | Bacteria G + c (Gram-positive cocci), 48 hours-culture (Gram-positive cocci) | Bacteria G − b (Gram-negative bacilli), 24 hours-culture (Gram-negative bacilli) | Bacteria G − b (Gram-negative bacilli), 48 hours-culture (Gram-negative bacilli) | Bacteria G − c (Gram-negative cocci), 24 hours-culture (Gram-negative cocci) | Bacteria G − c (Gram-negative cocci), 48 hours-culture (Gram-negative cocci) | pH, 24 hours-culture [1] | pH, 48 hours-culture [1] |
| --- | --- | --- | --- | --- | --- | --- | --- | --- | --- | --- |
| OC[C@H]1O[C@@H](O[C@H]2[C@H](O)[C@@H](O)C(O)O[C@@H]2CO)[C@H](O)[C@@H](O)[C@H]1O (stereo partly shown) [Lactose, lactose] | G + b, ++ (About 10-99 bacteria per field of vision under oil-immersion lens) | G + b, ++ (About 10-99 bacteria per field of vision under oil-immersion lens) | G + c, +++ (About 100 bacteria or more per field vision under oil-immersion lens, even uncountable) | G + c, + (1-9 bacteria per field of vision under oil-immersion lens) | G − b, + (1-9 bacteria per field of vision under oil-immersion lens) | G − b, + (1-9 bacteria per field of vision under oil-immersion lens) | G − c, − (No or less than one bacterium per field of version under oil-immersion lens) | G − c, − (No or less than one bacterium per field of version under oil-immersion lens) | 5.8 | 5.1-5.4 |
| dextrin | G + b, +++ (About 100 bacteria or more per field vision under oil-immersion lens, even uncountable) | G + b, ++ (About 10-99 bacteria per field of vision under oil-immersion lens) | G + c, + (1-9 bacteria per field of vision under oil-immersion lens) | G + c, − (No or less than one bacterium per field of version under oil-immersion lens) | G − b, ++ (About 10-99 bacteria per field of vision under oil-immersion lens) | G − b, + (1-9 bacteria per field of vision under oil-immersion lens) | G − c, − (No or less than one bacterium per field of version under oil-immersion lens) | G − c, − (No or less than one bacterium per field of version under oil-immersion lens) | 6.2 | 5.8 |
| glycogen | G + b, ++ (About 10-99 bacteria per field of vision under oil-immersion lens) | G + b, +++ (About 100 bacteria or more per field vision under oil-immersion lens, even uncountable) | G + c, + (1-9 bacteria per field of vision under oil-immersion lens) | G + c, + (1-9 bacteria per field of vision under oil-immersion lens) | G − b, ++ (About 10-99 bacteria per field of vision under oil-immersion lens) | G − b, ++ (About 10-99 bacteria per field of vision under oil-immersion lens) | G − c, − (No or less than one bacterium per field of version under oil-immersion lens) | G − c, − (No or less than one bacterium per field of version under oil-immersion lens) | 6.4 | 6.2 |
| starch | G + b, ++ (About 10-99 bacteria per field of vision under oil-immersion lens) | G + b, ++ (About 10-99 bacteria per field of vision under oil-immersion lens) | G + c, + (1-9 bacteria per field of vision under oil-immersion lens) | G + c, + (1-9 bacteria per field of vision under oil-immersion lens) | G − b, ++ (About 10-99 bacteria per field of vision under oil-immersion lens) | G − b, ++ (About 10-99 bacteria per field of vision under oil-immersion lens) | G − c, − (No or less than one bacterium per field of version under oil-immersion lens) | G − c, − (No or less than one bacterium per field of version under oil-immersion lens) | 6.7 | 6.2 |
| OC[C@H]1O[C@H](OC[C@H]2O[C@H](O[C@]3(CO)O[C@H](CO)[C@@H](O)[C@@H]3O)[C@H](O)[C@@H](O)[C@@H]2O)[C@H](O)[C@@H](O)[C@H]1O [Melitose, melitose] | G + b, ++ (About 10-99 bacteria per field of vision under oil-immersion lens) | G + b, +++ (About 100 bacteria or more per field vision under oil-immersion lens, even uncountable) | G + c, + (1-9 bacteria per field of vision under oil-immersion lens) | G + c, + (1-9 bacteria per field of vision under oil-immersion lens) | G − b, + (1-9 bacteria per field of vision under oil-immersion lens) | G − b, ++ (About 10-99 bacteria per field of vision under oil-immersion lens) | G − c, + (1-9 bacteria per field of vision under oil-immersion lens) | G − c, − (No or less than one bacterium per field of version under oil-immersion lens) | 6.7 | 5.8 |
| OC[C@H]1O[C@H](O[C@H]2O[C@H](CO)[C@@H](O)[C@H](O)[C@H]2O)[C@H](O)[C@@H](O)[C@@H]1O [Mycose, mycose] | G + b, ++ (About 10-99 bacteria per field of vision under oil-immersion lens) | G + b, +++ (About 100 bacteria or more per field vision under oil-immersion lens, even uncountable) | G + c, + (1-9 bacteria per field of vision under oil-immersion lens) | G + c, + (1-9 bacteria per field of vision under oil-immersion lens) | G − b, + (1-9 bacteria per field of vision under oil-immersion lens) | G − b, ++ (About 10-99 bacteria per field of vision under oil-immersion lens) | G − c, − (No or less than one bacterium per field of version under oil-immersion lens) | G − c, − (No or less than one bacterium per field of version under oil-immersion lens) | 4.8 | 4.6-4.8 |
| OC[C@H]1O[C@H](OCC2O[C@@H](O)[C@H](O)[C@@H](O)[C@@H]2O)[C@H](O)[C@@H](O)[C@H]1O (stereo partly shown) [Melibiose, melibiose] | G + b, + (1-9 bacteria per field of vision under oil-immersion lens) | G + b, ++ (About 10-99 bacteria per field of vision under oil-immersion lens) | G + c, + (1-9 bacteria per field of vision under oil-immersion lens) | G + c, + (1-9 bacteria per field of vision under oil-immersion lens) | G − b, ++ (About 10-99 bacteria per field of vision under oil-immersion lens) | G − b, ++ (About 10-99 bacteria per field of vision under oil-immersion lens) | G − c, + (1-9 bacteria per field of vision under oil-immersion lens) | G − c, − (No or less than one bacterium per field of version under oil-immersion lens) | 6.2 | 5.8 |
